Marks after values point to notes of the source that are not given here.
Columns and labels:
GABA [1] = test: GABA content in the brain following experimental sleep deprivation stress; assay type: in vivo, rats of Charles foster strain; details: 7 days sleep deprivation stress + drug, 10 rats
Source text: (§1) The study is divided into four groups, 10 rats of Charles foster strain were kept in each study group.
(§2) In control group 10 rats were selected and kept on normal saline for 7 days. On 7th days the animals were sacrificed and various biogenic amines like 5-HT GABA & glutamate, melatonin and MAO were estimated. After dissection of rat's brain the biogenic amines were estimated in thalamus, hypothalamus and cortex.
(§3) In this group sleep deprivation stress for 7 days was given to all the 10 rats. After 7 days the rat's brain were dissected and thalamus, hypo-thalamus and cortex were separated for the measurement of brain biogenic amines.
(§4) In this group the sleep deprivation stress was introduced along with the hydro-alcoholic extract of three plants Nyctanthes arbor-tristis, Ocimum tenuiflorum and Hippophae salicifolia. The drug Nyctanthes arbor-tristis (100 mg/kg bw./day), Ocimum tenuiflorum (50 mg/kg bw./day), Hippophae salicifolia (50 mg/kg bw./day) was given in combined form to all the 10 rats along with sleep deprivation stress. On 7th day (after two hours of administration of test drug) different parts of the rat's brain were dissected and 5-HT, melatonin GABA. glutamate and histamine were measured.
(§5) On 7th days the animals were sacrifice and brain biogenic amines were estimated in different parts of rat's brain.
(§6) The value obtained were compared with each other group (Normal vs sleep deprivation stress and sleep deprivation stress vs sleep deprivation stress+test formulation and sleep deprivation stress vs modern drug treatment group. Apart from initial at 7 day before sacrificing the animals circulating biogenic amines were also measured in all the three groups.

Histaminase = test: Circulating histaminase following experimental sleep deprivation stress; assay type: in vivo, rats of Charles foster strain; details: 7 days sleep deprivation stress + drug, 10 rats
Description: as §1, §4, §5, §6

GABA [2] = test: Circulating GABA following experimental sleep deprivation stress; assay type: in vivo, rats of Charles foster strain; details: 7 days sleep deprivation stress + drug, 10 rats
Description: as §1, §4, §5, §6

MAO = test: Circulating MAO following experimental sleep deprivation stress; assay type: in vivo, rats of Charles foster strain; details: 7 days sleep deprivation stress + drug, 10 rats
Description: as §1, §4, §5, §6

Glutamate [3] = test: Circulating glutamate following experimental sleep deprivation stress; assay type: in vivo, rats of Charles foster strain; details: 7 days sleep deprivation stress + drug, 10 rats
Description: as §1, §4, §5, §6

Glutamate [4] = test: Glutamate level in brain following experimental sleep deprivation stress; assay type: in vivo, rats of Charles foster strain; details: 7 days sleep deprivation stress + drug, 10 rats
Source text: as §1, §2, §3, §4, §5, §6

Melatonin = Melatonin level in brain, experimental sleep deprivation stress model; assay type: in vivo, rats of Charles foster strain; details: 7 days sleep deprivation stress + drug, 10 rats
Description: In this group the sleep deprivation stress was introduced along with the hydro-alcoholic extract of three plants Nyctanthes arbor-tristis, Ocimum tenuiflorum and Hippophae salicifolia. […] On 7th day (after two hours of administration of test drug) different parts of the rat's brain were dissected and 5-HT, melatonin GABA. glutamate and histamine were measured. […]

Glutamate [5] = test: Column headed Glutamate (nmol/mg/hr) in platelet MAO table, depressive disorder cases; assay type: in vivo, human; details: After 6 months; clinical Table 8
Source text: (§7) In the present study 99 cases between the age group of 20 to 60 years presenting the symptoms of mild to moderate depression were selected for clinical trial of test formulation containing extract of Nyctanthes arbor-tristis, Ocimum tenuiflorum and Hippophae salicifolia. […] The behavioral pattern was repeatedly assessed at the continuous interval of one month for six months.

DHA = DHA content in mild to moderate depressive patients; assay type: in vivo, human
Description: (§8) In the present study 99 cases between the age group of 20 to 60 years presenting the symptoms of mild to moderate depression were selected for clinical trial of test formulation containing extract of Nyctanthes arbor-tristis, Ocimum tenuiflorum and Hippophae salicifolia. The subjects were advised to take test formulation twice in a day in two divided doses (475 mg morning and 475 mg in the evening). The level of mood was measured by Major Depression Inventory (MDI) developed by Olsen L R et al (2003), the fatigue and psychomotor performance was measured by Mental Fatigue Apparatus and Rotary Pursuit Task. These tests and test battery are recommended by Gupta and Dubey (1994) for the scientific and objective assessment in the area of drug development. The behavioral pattern was repeatedly assessed at the continuous interval of one month for six months.

IL-1 β = test: Interleukin-1 β concentration in mild to moderate depressive patients; assay type: in vivo, human
Description: as §8

minor depressive cases [6] = test: Mental fatigue level (Mental Fatigue Apparatus), clinical trial; assay type: in vivo, human
Description: as §8

GABA [7] = test: GABA level in depression cases; assay type: in vivo, human
Description: as §8

minor depressive cases [8] = test: Rotatory pursuit task (psychomotor coordination), clinical trial; assay type: in vivo, human
Description: as §8

[9] = test system: depressive disorder cases; test: Mental fatigue (Time), clinical trial; assay type: in vivo, human
Description: as §8

depression cases [10] = test: Occipito frontalis muscle action potential in depression cases; assay type: in vivo, human
Description: as §8

depressive patients = test: Sleep pattern by polysomnographic studies in depressive patients; assay type: in vivo, human
Description: as §8
In control series (Sertraline treated) all the investigations were repeated and compared with the treated group.
There is an increase in DHA content after oral administration of test formulation for 6 months (Table-12). […] Neuro-peptide-γ is the 36-amino acid which affects anxiety, stress, pain, circadian rhythm and also associated various psychiatric disorders particularly depression of varying degree. […] The effect of test formulation on sleep pattern measured by recording on polysomnographic studies indicated improvement in sleep period, total sleep, sleep latency and various stages of sleep. Though none of the cases could achieve the stage four. The results obtained in the test formulation treatment group were compared with the conventional drug treated group and exerted significant difference when the conventional treated group was compared with the test formulation treated group (Table-16-17). The drug was found safe and effective after 6 months of continuous oral administration to depressed patients.

depression patients = test: Attention span (score), clinical trial; assay type: in vivo, human
Description: as §8

[11] = test system: depressive disorder cases; test: Anxiety level (score), clinical trial; assay type: in vivo, human
Description: as §8

Epinephrine = Epinephrine level in depressive cases; assay type: in vivo, human; details: Initial
Source text: as §7

[12] = test system: mild to moderate depression; test: Clinical symptomatology (in percent), clinical trial; assay type: in vivo, human
Description: as §8

Glutamate [13] = test: Glutamate level in depression cases; assay type: in vivo, human
Description: as §8

TNF-α = TNF-α in mild to moderate depressive patients; assay type: in vivo, human
Description: as §8

Neuro-peptide-γ = Neuro-peptide-γ content in depressed patients; assay type: in vivo, human
Platelet MAO = Platelet MAO activity in depressive disorder cases; assay type: in vivo, human
Description: as §8

depression cases [14] = test: Delta wave in depression cases; assay type: in vivo, human
Description: as §8

With `CNC1=Nc2ccc(Cl)cc2C(c2ccccc2)=[N+]([O-])C1` [Librium] the “GABA, Cortex” value (GABA [1]; cortex) was 2.62 ± 0.59 μmol/gm in wet tissue, the “GABA, Hypothalamus” value (GABA [1]; hypothalamus) was 4.68 ± 1.02 μmol/gm in wet tissue and the “GABA, Thalamus” value (GABA [1]; thalamus) was 3.91 ± 0.58 μmol/gm in wet tissue. The “Histaminase (circulating)” value (Histaminase) was 35.46 ± 4.95 µg/mL, the “GABA (circulating)” value (GABA [2]) was 1.02 ± 0.18 µmol/mL and the “MAO (circulating)” value (MAO) was 4.72 ± 0.89 nmol/m//hrs. For the same compound, the “Glutamate (circulating)” value (Glutamate [3]) was 1.11 ± 0.10 µmol/mL, the “Glutamate, Cortex” value (Glutamate [4]; cortex) was 13.97 ± 2.11 μmol/gm in wet tissue and the “Glutamate, Hypothalamus” value (Glutamate [4]; hypothalamus) was 12.66 ± 3.06 μmol/gm in wet tissue. The “Glutamate, Thalamus” value (Glutamate [4]; thalamus) was 11.64 ± 3.01 μmol/gm in wet tissue, the “Melatonin, Hypothalamus” value (Melatonin; hypothalamus) was 7.80 ± 1.02 μg/gm in wet tissue and the “Melatonin, Thalamus” value (Melatonin; thalamus) was 5.95 ± 1.85 μg/gm in wet tissue.
For `CN[C@H]1CC[C@@H](c2ccc(Cl)c(Cl)c2)c2ccccc21` [Sertraline], the Glutamate (Glutamate [5]) was 4.23 nmol/mg/h, the DHA (DHA; After 2 months) was 1.082 g/100 g of total fatty acid and the DHA (DHA; After 4 months) was 1.920 g/100 g of total fatty acid. For the same compound, the DHA (DHA; After 6 months) was 1.980 g/100 g of total fatty acid, the DHA (DHA; Initial) was 1.096 g/100 g of total fatty acid and the “IL-1 β” value (IL-1 β; After 2 months) was 1.886 µg/mL. For the same compound, the “IL-1 β” value (IL-1 β; After 4 months) was 1.923 µg/mL, the “IL-1 β” value (IL-1 β; After 6 months) was 1.790 µg/mL and the “IL-1 β” value (IL-1 β; Initial) was 2.098 µg/mL. For the same compound, the Mental fatigue level (minor depressive cases [6]; After 2 months) was 19.68 Hz, the Mental fatigue level (minor depressive cases [6]; After 4 months) was 19.02 Hz and the Mental fatigue level (minor depressive cases [6]; After 6 months) was 18.45 Hz. It also gave a Mental fatigue level (minor depressive cases [6]; Initial) of 18.22 Hz, a GABA (GABA [7]; After 6 months) of 1.410 µmol/mL and a GABA (GABA [7]; Initial) of 1.070 µmol/mL. The Rotatory pursuit task (minor depressive cases [8]; After 2 months) was 28.03 Hz, the Rotatory pursuit task (minor depressive cases [8]; After 4 months) was 27.47 Hz and the Rotatory pursuit task (minor depressive cases [8]; After 6 months) was 26.52 Hz. The Rotatory pursuit task (minor depressive cases [8]; Initial) was 28.39 Hz, the “Mental fatigue (Time)” value ([9]; After 6 month) was 90.3 and the “Mental fatigue (Time)” value ([9]; Initial) was 94.5. The “Occipito frontalis muscle action potential” value (depression cases [10]; After 2 months) was 41.75, the “Occipito frontalis muscle action potential” value (depression cases [10]; After 4 months) was 42.82 and the “Occipito frontalis muscle action potential” value (depression cases [10]; After 6 months) was 40.86. The “Occipito frontalis muscle action potential” value (depression cases [10]; Initial) was 4.378, the “Sleep Latency” value (depressive patients; After 6 months treatment) was 14.98 min and the Sleep period (depressive patients; After 6 months treatment) was 438.35 min. The “Stage-I (Time in min)” value (depressive patients; After 6 months treatment) was 162.98 min, the “Stage-II (Time in min)” value (depressive patients; After 6 months treatment) was 46.22 min and the “Stage-III (Time in min)” value (depressive patients; After 6 months treatment) was 15.82 min. For the same compound, the “Total Sleep” value (depressive patients; After 6 months treatment) was 201.94 min, the “Sleep Latency” value (depressive patients; Before treatment) was 13.62 min and the Sleep period (depressive patients; Before treatment) was 445.90 min. For the same compound, the “Stage-I (Time in min)” value (depressive patients; Before treatment) was 179.32 min, the “Stage-II (Time in min)” value (depressive patients; Before treatment) was 45.82 min and the “Stage-III (Time in min)” value (depressive patients; Before treatment) was 18.22 min. The “Total Sleep” value (depressive patients; Before treatment) was 234.98 min, the Attention span (depression patients; After 6 months) was 9.32 Score and the Attention span (depression patients; Initial) was 10.49 Score. For the same compound, the Anxiety level ([11]; After 6 months) was 58.5 score, the Anxiety level ([11]; Initial) was 56.5 score and the Epinephrine (Epinephrine) was 5.32 ng/mL. For the same compound, the Early fatiguability ([12]; After 6 months) was 91.12* percent, the Lack of interest ([12]; After 6 months) was 92.20* percent and the Pessimistic thinking ([12]; After 6 months) was 95.86* percent. The Poor appetite ([12]; After 6 months) was 50.03* percent, the Poor concentration ([12]; After 6 months) was 86.02* percent and the Poor sleep ([12]; After 6 months) was 79.41* percent. For the same compound, the Psychomotor retardation ([12]; After 6 months) was 78.09* percent, the Weight loss ([12]; After 6 months) was 40.32* percent and the Early fatiguability ([12]; Initial) was 98.01%. The Lack of interest ([12]; Initial) was 97.82%, the Pessimistic thinking ([12]; Initial) was 96.27% and the Poor appetite ([12]; Initial) was 58.89%. It also gave a Poor concentration ([12]; Initial) of 88.41%, a Poor sleep ([12]; Initial) of 98.04% and a Psychomotor retardation ([12]; Initial) of 74.66%. It also gave a Weight loss ([12]; Initial) of 42.01%, a Glutamate (Glutamate [13]; After 6 months) of 0.385 µmol/mL and a Glutamate (Glutamate [13]; Initial) of 0.419 µmol/mL. The “TNF-1 α” value (TNF-α; After 2 months) was 3.71 ng/mL, the “TNF-1 α” value (TNF-α; After 4 months) was 3.85 ng/mL and the “TNF-1 α” value (TNF-α; After 6 months) was 4.14 ng/mL. The “TNF-1 α” value (TNF-α; Initial) was 4.82 ng/mL, the Neuro-peptide-γ (Neuro-peptide-γ; After 2 months) was 148.90 pg/mL and the Neuro-peptide-γ (Neuro-peptide-γ; After 4 months) was 151.89 pg/mL. For the same compound, the Neuro-peptide-γ (Neuro-peptide-γ; After 6 months) was 156.04 pg/mL, the Neuro-peptide-γ (Neuro-peptide-γ; Initial) was 129.68 pg/mL and the “Platelet MAO” value (Platelet MAO; After 6 months) was 5.98 nmol/mL/h. For the same compound, the “Platelet MAO” value (Platelet MAO; Initial) was 5.04 nmol/mL/h, the “Delta Wave” value (depression cases [14]; After 2 months) was 0.94 Hz and the “Delta Wave” value (depression cases [14]; After 4 months) was 1.06 Hz. The “Delta Wave” value (depression cases [14]; After 6 months) was 1.02 Hz and the “Delta Wave” value (depression cases [14]; Initial) was 0.68 Hz.

— patent US10111921B2, “Regulation of brain biogenic amines associated with depression by a formulation from botanical source” (GoVind Prasad Dubey, priority 2014, dated 2018)
